Read-outs that look alike come from different tables or passages of the source.
How the values were obtained:
[1] = Mass balance, single PO dose of 300 mg 14C-GNX in healthy male volunteers; assay type: in vivo; settings: human, plasma
Description: The total plasma radioactivity concentrations achieved were much higher than GNX plasma levels in clinical studies with non-labelled GNX. […] Approximately 80% of the total radioactivity was excreted in faeces and urine by Day 14. […] PK parameters (mean±SD) of ^14C-GNX-derived total radioactivity in Healthy Male Volunteers (Study No. CA042 9402.01 [n=5]) are summarized in Table 22.

[2] = test system: rats or mice; assay: Reproductive/developmental toxicity and mutagenicity; assay type: in vivo
[3] = test system: rats; assay: Intravenous ganaxolone in rats: EEG and status epilepticus models; assay type: in vivo, rat
[4] = test system: female rats; assay: Pulmonary safety pharmacology in female rats; assay type: in vivo, rat; settings: doses up to 40 mg/kg
[5] = test system: rabbits; assay: Local tolerance study in rabbits; assay type: in vivo, rabbit
Protocol: When given IV to rats and dogs, the main dose limiting toxicity finding was sedation. The no observed adverse effect level (NOAEL) after IV dosing in rats for 14 days was established at 42 mg/kg/day for males and 30 mg/kg/day for females. The NOAEL in dog after administration of ganaxolone by IV bolus followed by continuous IV infusion for 28 days was 7.20 mg/kg/day, which corresponded to a steady-state concentration of approximately 330 ng/mL and 333 ng/mL. There were no findings in a local tolerance study in rabbits.

[6] = test system: children with rare genetic epilepsies; assay: Phase 2 open-label trial, safety, tolerability and disposition; assay type: in vivo, human
Description: Example 3 concerns a Phase 2 Multicenter, Open-Label Proof-of-Concept Trial of ganaxolone (GNX) in cohorts of children having genetic epilepsies (PCDH19, CDKL5 LGS, and CSWS) (ClinicalTrials.gov Identifier: NCT02358538). There were 11 female children with PCDH19 epilepsy between 5-16 years old with a confirmed genetic mutation. There were 6 female and 1 male children with confirmed genetic mutations in the CDKL5 cohort. There were 10 children in the Lennox Gastaut Syndrome cohort. Two children with CSWS were enrolled into the study. The study was conducted with 12 weeks baseline, and up to 26 weeks of treatment followed by a 52 week open label treatment. The primary efficacy was the percentage change in seizure frequency per 28 days relative to baseline calculated using daily seizure diary. [Time Frame: 26 weeks]. Secondary Outcome Measures were: Clinician Global Impression of Change score as assessed by questionnaire. [Time Frame: 26 Weeks]; Patient Global Impression of Change score as assessed by questionnaire. [Time Frame: 26 Weeks]; Evaluation of safety and tolerability of open-label ganaxolone as adjunctive therapy for uncontrolled seizures in children with rare genetic epilepsies, based on adverse event log and other clinical safety assessments. [Time Frame: 26 weeks]; Responder rates [Time Frame: 26 weeks]; and Seizure free days [Time Frame: 26 weeks].
Following screening and baseline evaluations, consenting patients enrolled into a 26-week study during which investigators were allowed to flexibly dose ganaxolone up to a dose of 1,800 mg/day for patients whose body weight was >30 kg, or up to 63 mg/kg/day for patients whose body-weight was <30 kg. The primary efficacy measure is % change from baseline in the 28-day seizure frequency count. Safety and tolerability were within the secondary objectives of the study.
A total of 30 subjects were enrolled in the study: one-half (15 subjects) completed the 26-week open-label treatment period and one-half (15 subjects) discontinued the study. In total, the main reasons for study discontinuation in the safety population were lack of efficacy (8 subjects [26.7%]), and AE or SAE (4 subjects [13.3%)]). All 30 (100.0%) subjects were in the safety and MITT population.
Ganaxolone was generally safe and well-tolerated in subjects with epilepsy disorders. […] In the CDD cohort, 6 subjects (85.7%) experienced a total of 45 TEAEs; in the CSWS cohort, 1 subject (50.0%) had 7 TEAEs; in the LGS cohort, 7 subjects (70.0%) had 24 TEAEs; and in the PCDH19 cohort, 11 subjects (100.0%) had 95 TEAEs.
No deaths were reported in this study.

[7] = In vitro haemolysis and human plasma compatibility
[8] = human plasma following oral administration; cited from earlier work
[9] = biological target: CYP3A4 (Homo sapiens, UniProt P08684); assay: In vitro clearance
Chain of CYP3A4 (P08684 whole entry): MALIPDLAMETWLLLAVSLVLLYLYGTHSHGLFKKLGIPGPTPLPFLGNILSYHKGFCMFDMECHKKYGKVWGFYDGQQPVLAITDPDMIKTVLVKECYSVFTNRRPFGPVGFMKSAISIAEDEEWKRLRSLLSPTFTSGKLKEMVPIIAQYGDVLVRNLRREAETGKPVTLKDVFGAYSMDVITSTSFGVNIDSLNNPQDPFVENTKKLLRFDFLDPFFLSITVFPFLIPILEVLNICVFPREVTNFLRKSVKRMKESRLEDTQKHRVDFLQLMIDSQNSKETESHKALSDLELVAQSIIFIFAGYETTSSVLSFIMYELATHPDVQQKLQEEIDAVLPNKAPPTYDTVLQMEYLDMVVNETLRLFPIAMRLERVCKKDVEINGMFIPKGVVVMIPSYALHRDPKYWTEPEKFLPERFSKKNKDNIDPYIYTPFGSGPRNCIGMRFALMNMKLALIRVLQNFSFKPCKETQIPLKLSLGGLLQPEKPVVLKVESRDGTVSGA

[10] = test system: dogs; assay: 1-year (chronic oral) dog toxicity study; assay type: in vivo
Description: There was a physiologically normal shortening of the PR and QT interval in response to the higher heart rate. There was no effect on QRS duration or QTc interval.
In the oral dosing programme, a therapeutic index from non-human NOAEL levels to the adult partial-onset seizure epilepsy and the pharmacokinetics study is approximately 2 to 3-fold in dogs (sedation).

[11] = test system: dogs; assay: Cardiovascular safety pharmacology, single dose in dogs; assay type: in vivo, dog; settings: single dose of up to 15 mg/kg
[12] = Plasma concentrations in paediatric patients after oral dosing; assay type: in vivo, human; settings: for Plasma concentrations: oral with food, 1 to 13 year old epilepsy patients
[13] = oral suspension formulation, 3 to 18 mg/kg TID, patients aged 4 to 41 months

SMILES: CC(=O)[C@H]1CC[C@H]2[C@@H]3CC[C@H]4C[C@](C)(O)CC[C@]4(C)[C@H]3CC[C@]12C [Ganaxolone, 3α-hydroxy-3β-methyl-5α-pregnan-20-one]
- Half-life [1]: ~25 h
- Mutagenicity ([2]; in vivo): No potential for mutagenicity
- Effects on fertility and early embryonic development ([2]; rats): no effects
- Teratogenicity ([2]; rats or mice): not teratogenic
- Sedative / anaesthetic response [3]: did not cause a full anaesthetic response
- EEG effect ([3]; otherwise normal rats): induce burst suppression-like electroencephalogram (EEG) patterns
- Pulmonary effects [4]: No pulmonary effects
- Local tolerance [5]: no findings
- Total number of TEAEs ([6]; CDD cohort): 45 TEAEs
- Subjects experiencing TEAEs ([6]; CDD cohort, safety population): 85.7%
- Discontinued during the 26-week open-label period, reason AE or SAE ([6]; CDKL5 N = 7): 0 n (%)
- Discontinued during the 26-week open-label period, reason lack of efficacy ([6]; CDKL5 N = 7): 1 n (%)
- Discontinued during the 26-week open-label period, reason AE or SAE ([6]; CSWS N = 2): 1 n (%)
- Discontinued during the 26-week open-label period, reason lack of efficacy ([6]; CSWS N = 2): 1 n (%)
- Subjects experiencing TEAEs ([6]; CSWS cohort): 50.0%
- Total number of TEAEs ([6]; CSWS cohort): 7 TEAEs
- Discontinued during the 26-week open-label period, reason AE or SAE ([6]; LGS N = 10): 1 (10.0) n (%)
- Discontinued during the 26-week open-label period, reason lack of efficacy ([6]; LGS N = 10): 3 (30.0) n (%)
- Subjects experiencing TEAEs ([6]; LGS cohort): 70.0%
- Total number of TEAEs ([6]; LGS cohort): 24 TEAEs
- Adverse event: Abdominal pain ([6]; PCDH19 N = 11): 2 (18.2) N (%)
- Adverse event: Fatigue ([6]; PCDH19 N = 11): 3 (27.3) N (%)
- Adverse event: Headache ([6]; PCDH19 N = 11): 3 (27.3) N (%)
- Adverse event: Pyrexia ([6]; PCDH19 N = 11): 2 (18.2) N (%)
- Adverse event: Seizure ([6]; PCDH19 N = 11): 3 (27.3) N (%)
- Adverse event: Somnolence ([6]; PCDH19 N = 11): 4 (36.4) N (%)
- Adverse event: Vomiting ([6]; PCDH19 N = 11): 2 (18.2) N (%)
- Discontinued during the 26-week open-label period, reason AE or SAE ([6]; PCDH19 N = 11): 2 n (%)
- Discontinued during the 26-week open-label period, reason lack of efficacy ([6]; PCDH19 N = 11): 3 n (%)
- Subjects experiencing TEAEs ([6]; PCDH19 cohort): 100.0%
- Total number of TEAEs ([6]; PCDH19 cohort): 95 TEAEs
- Discontinued during the 26-week open-label period, reason AE or SAE ([6]; Total N = 30): 4 n (%)
- Discontinued during the 26-week open-label period, reason lack of efficacy ([6]; Total N = 30): 8 n (%)
- Deaths ([6]; all cohorts): No deaths
- Subjects experiencing SAEs ([6]; all cohorts, N=30): 20.0%
- Subjects overall experiencing TEAEs ([6]; all cohorts, N=30): 83.3%
- Subjects with a TEAE that led to discontinuation of study drug ([6]; all cohorts, N=30): 13.3%
- Subjects with mild TEAEs ([6]; all cohorts, N=30): 23.3%
- Subjects with moderate TEAEs ([6]; all cohorts, N=30): 46.7%
- Subjects with severe TEAEs ([6]; all cohorts, N=30): 13.3%
- Subjects with treatment-related TEAEs ([6]; all cohorts, N=30): 53.3%
- Compatibility with human plasma [7]: compatible with human plasma
- Haemolysis [7]: did not cause haemolysis
- Half-life [8]: approximately 20 hours
- Enzyme driving clearance [9]: driven mainly by CYP3A4
- Effect on QRS duration or QTc ([10]; 1-year dog study): no treatment effect
- ECG finding ([10]; 1-year dog study, after 3 months of dosing, 4 animals, >190 bpm): transient sinus tachycardia
- Cmax ([10]; 1-year dog toxicity study): > 1500 ng/mL
- Findings at mean Cmax greater than 1500 ng/mL ([10]; chronic oral toxicity study in dogs, 10 and 15 mg/kg/day): increased weight and total plasma cholesterol levels
- Therapeutic index from non-human NOAEL levels ([10]; oral dosing programme, dogs (sedation)): 2 to 3 fold
- Effect on cardiovascular parameters [11]: no effect
- Plasma concentrations ([12]; 1 mg/kg TID): up to 5.78 ng/mL
- Trough concentrations ([12]; 12 mg/kg TID, humans about 0.6 to about 7 years old): at least 38.5±37.4 ng/mL
- Plasma concentrations ([12]; 12 mg/kg TID): 10.3 to 16.1 ng/mL
- concentration at 4 weeks ([12]; human, plasma, oral, β-cyclodextrin formulation with food, 6 mg/kg BID to 12 mg/kg TID, 5-15 year old, read-out: Plasma concentrations at week 4): ≤ 22.1 ng/mL
- concentration at 8 weeks ([12]; human, plasma, oral, β-cyclodextrin formulation with food, 6 mg/kg BID to 12 mg/kg TID, 5-15 year old, read-out: Plasma concentrations at week 8): 5.7 to 43.7 ng/mL
- Cmax [12, 13]: about 123 ng/mL
- Trough concentration [12, 13]: about 23 ng/mL
